The target in one assay is T1, CpCBM92B (Chitinophaga pinensis, UniProt A0A979GQH9).
T1 construct: gene Cpin_2580; single CBM92 domain (incl. Arg955, Asp959 of beta subdomain), locus and borders only in supplement; His6-tagged, E. coli BL21 (DE3)
In words: X-ray crystallography of soaked crystal. Format: binding. Conditions: sites in alpha, beta and gamma subdomains, saturating ligand soak.

The next assay deals with T2, CpCBM92A (Chitinophaga pinensis, UniProt A0A979GQH9).
T2 construct: gene Cpin_2580; single CBM92 domain (three WExF motifs incl. W481, W523, W565), borders only in supplement; pET21a, C-terminal His6, E. coli BL21 (DE3)
Description: isothermal titration calorimetry. Conditions: 50 mM sodium phosphate pH 6.5; three equivalent binding sites (N fixed to 3). An excerpt:
isothermal titration calorimetry on CpCBM92A

T2 sequence (A0A979GQH9 entry or part of it): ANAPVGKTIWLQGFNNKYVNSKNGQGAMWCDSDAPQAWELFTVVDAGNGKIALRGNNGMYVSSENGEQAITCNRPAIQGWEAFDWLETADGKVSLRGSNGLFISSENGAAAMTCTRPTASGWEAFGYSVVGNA
T1 sequence (A0A979GQH9 entry or part of it): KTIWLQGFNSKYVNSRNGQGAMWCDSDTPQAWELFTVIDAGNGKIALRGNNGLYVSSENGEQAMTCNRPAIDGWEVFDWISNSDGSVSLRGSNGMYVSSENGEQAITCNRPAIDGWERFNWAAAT

With `OC[C@H]1O[C@@H](O[C@H]2C(O)O[C@H](CO)[C@@H](O)[C@@H]2O)[C@H](O)[C@@H](O)[C@@H]1O` (stereo partly drawn) [S2, sophorose], the “X-ray crystallography of soaked crystal” value on CpCBM92B was “Adding either G2 or S2 to the protein crystals led to binding”. Further, the Kd (usually a measure of binding affinity in units of concentration) at CpCBM92A is 882 ± 107 µM.

In the case of `OC[C@H]1OC(O)[C@H](O)[C@@H](O)[C@@H]1O` (stereo partly drawn) [glucose], the “X-ray crystallography of soaked crystal” value at CpCBM92B is “Soaking experiments of the CpCBM92B protein crystals with glucose, gentiobiose”. Also, the Kd on CpCBM92A is 1840 ± 200 µM.

Regarding `OC[C@H]1O[C@@H](OC[C@H]2OC(O)[C@H](O)[C@@H](O)[C@@H]2O)[C@H](O)[C@@H](O)[C@@H]1O` (stereo partly drawn) [G2, gentiobiose], the “X-ray crystallography of soaked crystal” value at CpCBM92B (non-reducing end sugar in cleft) is listed as “Adding either G2 or S2 to the protein crystals led to binding”. Besides, at CpCBM92A, the Kd was determined as 202 ± 40 µM.
